Reference: the SangsterLogP compilation

Experiment: method code SF-AS, from DOI: 10.1021/jm00244a011, PMID: 808606

Compound | logP
CCOC(=O)CCCCCN1C(=O)C=CC1=O | 1.5
CCOC(=O)CCCN1C(=O)C=CC1=O | 0.67
O=C(O)CN1C(=O)C=CC1=O | -0.14
O=C(O)CCCCCN1C(=O)C=CC1=O | 1.15
CCOC(=O)CCN1C(=O)C=CC1=O | 0.41
O=C(O)CCCN1C(=O)C=CC1=O | 0.4
O=C(O)CCCCCCCN1C(=O)C=CC1=O | 1.99
O=C(O)CCN1C(=O)C=CC1=O | 0.04
O=C(O)CCCCN1C(=O)C=CC1=O | 0.6
CCOC(=O)CN1C(=O)C=CC1=O | 0.49
